Tests used:
[1] = as reported elsewhere; cited from earlier work
[2] = system: patients with hypercholesterolemia at high CV risk not adequately controlled with rosuvastatin (10 mg or 20 mg); assay: Example 3: safety, treatment-emergent adverse events in pooled treatment groups; conditions: Safety Population; pooled treatment groups
[3] = system: patients with hypercholesterolemia at high CV risk not adequately controlled with atorvastatin (20 mg or 40 mg); assay: Example 2: randomized, double-blind trial, lipid efficacy of mAb316P add-on to atorvastatin vs EZE add-on, atorvastatin dose doubling or switch to rosuvastatin; type: in vivo, human
Outline: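 Patients on atorvastatin 20 or 40 mg randomized to mAb316P 75 mg SC Q2W (raised to 150 mg from week 12 per CV risk) or blinded comparators, over 24 weeks. Endpoint: percent change in calculated LDL-C (Friedewald; beta quantification if TG >400 mg/dL) from baseline to week 24.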

## CC(C)c1nc(N(C)S(C)(=O)=O)nc(-c2ccc(F)cc2)c1/C=C/[C@@H](O)C[C@@H](O)CC(=O)O [rosuvastatin, reference compound]
[1]
  reduction in LDL-C levels when switching from atorvastatin 40 mg per day to rosuvastatin 40 mg per day: ~8%
[2]
  General Allergic TEAEs: 7 (6.9%) patients (%)
  SOC General disorders and administration site conditions: 10 (9.9%) patients (%)
  SOC Psychiatric disorders: 3 (3.0%) patients (%)
  SOC Respiratory, thoracic and mediastinal disorders: 5 (5.0%) patients (%)
  SOC Skin and subcutaneous tissue disorders: 6 (5.9%) patients (%)
  TEAEs: 68 (67.3%) patients (%)
  Treatment-emergent SAEs: 8 (7.9%) patients (%)
  Treatment-emergent cardiovascular events adjudicated positively: 1 (1.0%) patients (%)
  Treatment-emergent neurocognitive disorders: 2 (2.0%) patients (%)
  Treatment-emergent neurologic disorders: 2 (2.0%) patients (%)
  cough: 3 (3.0%) patients (%)
  discontinued study treatment early due to a treatment emergent adverse event: 5 (5.0%) patients (%)
  injection site reactions (ISRs): 2 (2.0%) patients (%)
[3]; ITT population, week 24, treatment arm as labelled
  LDL-C W24 % change from baseline, LS mean (SE): −21.4%
[3]; Week 4
  Calculated LDL-C LS mean (SE), % Change from Baseline: −22.4 (2.8) %
  Calculated LDL-C LS mean (SE), Change from Baseline: −25.2 (3.0)
  Calculated LDL-C LS mean (SE), Value (mg/dL): 83.5 (3.0) mg/dL
[3]; Week 8
  Calculated LDL-C LS mean (SE), % Change from Baseline: −21.0 (3.2) %
  Calculated LDL-C LS mean (SE), Change from Baseline: −22.9 (3.3)
  Calculated LDL-C LS mean (SE), Value (mg/dL): 85.8 (3.3) mg/dL
[3]; Week 12
  Calculated LDL-C LS mean (SE), % Change from Baseline: −23.3 (3.2) %
  Calculated LDL-C LS mean (SE), Change from Baseline: −26.3 (3.5)
  Calculated LDL-C LS mean (SE), Value (mg/dL): 82.4 (3.5) mg/dL
[3]; Week 16
  Calculated LDL-C LS mean (SE), % Change from Baseline: −15.7 (3.5) %
  Calculated LDL-C LS mean (SE), Change from Baseline: −18.7 (3.8)
  Calculated LDL-C LS mean (SE), Value (mg/dL): 90.0 (3.8) mg/dL
[3]; Week 24
  Calculated LDL-C LS mean (SE), % Change from Baseline: −21.4 (4.2) %
  Calculated LDL-C LS mean (SE), Change from Baseline: −23.1 (4.5)
  Calculated LDL-C LS mean (SE), Value (mg/dL): 85.6 (4.5) mg/dL
[3]; Week 24, calculated LDL-C, across atorvastatin 20 mg and 40 mg regimens
  patients achieving the more stringent LDL-C goal of <70 mg/dL: 42.2%
[3]; atorvastatin 40 mg regimen, week 24, add-on mAb316P, add-on ezetimibe, doubling of atorvastatin dose or switch to rosuvastatin 40 mg
  reduced LDL-C levels by: 21.4%
[3]; week 24, calculated LDL-C <70 mg/dL very high risk or <100 mg/dL high risk, combined estimate
  Proportion of Patients Reaching LDL-C goal (%): 62.2%

From US20150231236A1, “METHODS FOR TREATING PATIENTS WITH HYPERCHOLESTEROLEMIA THAT IS NOT ADEQUATELY CONTROLLED BY MODERATE-DOSE STATIN THERAPY” (Regeneron Pharmaceuticals, Inc., priority 2014, published 2015)
